# Reference: patent US6238875A, “Diagnostic methods useful in the characterization of lymphoproliferative disease characterized by increased EPR-1” (The Scripps Research Institute, priority 1994, dated 2001)
# Tested on: T lymphocytes
# Assay: Intracellular Ca2+ signalling in single adherent T lymphocytes loaded with Indo-1 (real-time fluorescence)
# Assay type: cell-based, human
# Settings: 7 μM ionomycin; Indo-1-loaded T cells; data not shown
# Method: Early events of intracellular Ca^2+ signalling after EPR-1 occupancy were characterized in real-time fluorescence measurements at the single cell level (Altieri, et al., Biochem. J. 288: 465 (1992)). Freshly isolated T lymphocytes were attached onto Cell-Tak-(Biopolymers, Farmington, Conn.)-coated optical grade glass coverslips (22 mm^2 diameter and <[…] thickness), and loaded intracellularly with 1 μM of the Ca^2+ -sensitive fluorescent dye Indo-1/AM (Grynkiewicz, et al., J. Biol. Chem. 260: 3440 (1985)) (Calbiochem) in 145 mM NaCl, 5 mM KCl, 1 mM Na2 HPO4, 2.5 mM CaCl2, 10 mM glucose, 25 mM HEPES, 0.5 mM MgSO4 for 45 minutes at 37° C. Cells were gently washed in the same loading buffer, and analyzed in real time fluorescence measurements in digitalized imaging using the interactive laser cytometer ACAS 470, as described (Altieri, et al., Id. (1992)). […] After 125 seconds from the addition of the primary mAb, 50 μg/ml aliquots of goat anti-mouse F(ab')2 fragments were added as a cross-linking reagent, and fluorescence changes in the target cells were monitored continuously during a 3-minute interval. Changes in cytosolic free [Ca^2+ ]i under the various conditions tested are expressed as ratio of Detector 1 (free Indo-1, 485 nm wavelength)/Detector 2 (Indo-1:Ca^2+ complex, 405 nm wavelength).
structure (smiles),measurement,value
C[C@H](CCC(=O)O)C[C@H](C)C[C@H](C)C(=O)/C=C(\O)[C@H](C)C[C@H](C)C/C=C/[C@@H](C)[C@@H](O)[C@@H](C)[C@@H](O)C[C@@H]1CC[C@@](C)([C@H]2CC[C@@](C)([C@@H](C)O)O2)O1 [ionomycin],cytosolic free [Ca2+]i response,large and sustained increase
